Reference: publication PMC5972579 (Brain, 2018)

Columns and labels:
GPR52 [1] = target: T1, GPR52 (Homo sapiens, UniProt Q9Y2T5); assay: intracellular cAMP HTRF assay; format: cell-based
GPR52 [2] = target: T1, GPR52; assay: inhibition of WO-[…])-stimulated cAMP; format: cell-based

T1 sequence (Q9Y2T5 whole entry): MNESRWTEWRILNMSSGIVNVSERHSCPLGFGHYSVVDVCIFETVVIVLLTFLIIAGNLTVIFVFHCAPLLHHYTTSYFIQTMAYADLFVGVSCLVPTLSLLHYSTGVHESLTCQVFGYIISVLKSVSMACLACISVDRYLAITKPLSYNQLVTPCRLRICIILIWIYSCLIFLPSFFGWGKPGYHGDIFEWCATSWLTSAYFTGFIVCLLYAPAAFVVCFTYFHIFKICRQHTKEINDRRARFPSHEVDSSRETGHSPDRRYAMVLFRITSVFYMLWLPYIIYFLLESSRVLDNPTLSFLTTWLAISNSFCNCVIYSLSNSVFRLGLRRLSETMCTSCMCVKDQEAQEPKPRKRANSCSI

Row | EC50 (GPR52 [1]) | IC50 (GPR52 [2]) | SMILES
1 | 6 ± 0.7 nM |  | Cc1nn(-c2cccc3cc(Cc4cccc(C(F)(F)F)c4)sc23)cc1C(=O)NCCO [WO-459, N-(2-hydroxyethyl)-3-methyl-1-[2-[3-(trifluoromethyl)benzyl]benzothiophen-7-yl]-1H-pyrazole-4-carboxamide]
2 |  | 12 ± 0.7 µM | C=C1C(=O)O[C@@H]2/C=C(\C)CC3C=C(C[C@H](OC(=O)/C(C)=C\C)[C@@H]12)C(=O)O3 (mixture of isomers) [E7, (3S,4R,8R,9E)-10-methyl-5-methylidene-6,14-dioxo-7,13-dioxatricyclo[10.2.1.0⁴,⁸]pentadeca-1(15),9-dien-3-yl (2Z)-2-methylbut-2-enoate]
